Source: US7888380B2, “1,2,4-Triazolylaminoaryl (heteroaryl) sulfonamide derivatives” (Janssen Pharmaceutica, N.V., priority 2004, dated 2011)
Structures can show the parent of a compound that is named as a salt. Where two headings read alike, the source gives them in different places.

Legend:
[1] = test system: HeLa cervical adenocarcinoma; experiment: Inhibition of cell proliferation (14C-thymidine incorporation), HeLa; type: cell-based
Protocol: (§1) The ability of a test compound to inhibit the proliferation of cell growth was determined by measuring incorporation of ^14C-labelled thymidine into newly synthesized DNA within the cells. This method was used on cell lines derived from carcinomas originating from several tissues such as HeLa cervical adenocarcinoma (American Type Culture Collection (ATCC), Virginia, Cat. #CCL-2), A375 malignant melanoma (ATCC CRL-1619), and HCT-116 colon carcinoma (CCL-247). In this way the effect of a compound on cell growth of cells with many different phenotypes can be determined. Cells were trypsinized and counted and 3000-8000 cells were added to each well of a 96-well CytoStar tissue culture treated scintillating microplate (Amersham #RPNQ0160) in complete medium in a volume of 100 μl. Cells were incubated for 24 hours in complete medium at 37° C. in an atmosphere containing 5% CO2.
(§2) Next, 1 μl of test compound in 100% DMSO was added to the wells of the plate. DMSO only was added to control wells. Cells were incubated for 24 more hours in complete medium at 37° C. in an atmosphere containing 5% CO2. Methyl ^14C-thymidine 56 mCi/mmol (NEN #NEC568 or Amersham #CFA532) was diluted in complete medium and 0.2 uCi/well was added to each well of the CytoStar plate in a volume of 20 ul. The plate was incubated for 24 hours at 37° C. plus 5% CO2 in drug plus ^14C-thymidine. The contents of the plate were discarded into a ^14C radioactive waste container by inverting the plate and the plate was washed twice with 200 μl PBS.
(§3) 200 μl of PBS was added to each well. The top of the plate was sealed with a transparent plate sealer and a white plate backing sealer (Packard #6005199) was applied to the bottom of the plate. The degree of methyl ^14C-thymidine incorporation was quantified on a Packard Top Count.

[2] = target: T1, HER2 (Homo sapiens, UniProt P04626); experiment: HER2 Kinase Screening Assay; type: biochemical; details: 10 μM ATP; >10 or >100 = less than 50% inhibition at highest concentration tested
T1 construct: polyhistidine (N)
Protocol: The HER2 kinase assay was carried out as described above for the VEGF-R kinase assay except that the enzyme was replaced with a human epidermal growth factor receptor-2 (HER2) construct contains a polyhistidine tag at the N-terminus followed by 24 additional amino acids and begins at amino acid 676 (Accession #M11730) followed by the remainder of the HER2 cytoplasmic domain.
VEGF-R (vascular endothelial growth factor receptor-2) is a fusion protein containing a polyhistidine tag at the N-terminus followed by amino acids 786-1343 of the rat VEGF-R2 kinase domain (GenBank Accession #U93306). CDK1 (cyclin dependent kinase 1) was isolated from insect cells expressing both the human CDK1 catalytic subunit and its positive regulatory subunit cyclin B (New England Biolabs, Beverly, Mass., Cat. # 6020). CDK2 in complex with cyclin A is commercially available (Upstate Biotech, Lake Placid, N.Y.). The HER2 (human epidermal growth factor receptor-2) construct contains a polyhistidine tag at the N-terminus followed by 24 additional amino acids and begins at amino acid 676 followed by the remainder of the HER2 cytoplasmic domain.

[3] = test system: A375 malignant melanoma; experiment: Inhibition of cell proliferation (14C-thymidine incorporation), A375; type: cell-based, human
Protocol: as §1, §2, §3

[4] = test system: HCT-116 colon carcinoma; experiment: Inhibition of cell proliferation (14C-thymidine incorporation), HCT116; type: cell-based, human
Protocol: as §1, §2, §3

Compound | IC50 [2] [µM] | IC50 ([1]; Homo sapiens) [µM] | IC50 ([3]; Homo sapiens, A-375) [µM] | IC50 ([4]; Homo sapiens, HCT-116) [µM] | IC50 [1] [µM] | IC50 [3] [µM] | IC50 [4] [µM]
4-[5-amino-1-(2,6-difluoro-benzoyl)-1H-[1,2,4]triazol-3-ylamino]-N-propionyl-benzenesulfonamide [Compound 20] | ≥ 10 | – | – | – | 58.8 | > 10 | > 10
Nc1nc(Nc2ccc(S(=O)(=O)NC(=O)CCC(=O)O)cc2)nn1C(=O)c1c(F)cccc1F [Compound 1, 4-{4-[5-amino-1-(2,6-difluoro-benzoyl)-1H-[1,2,4]triazol-3-ylamino]-benzenesulfonylamino}-4-oxo-butyric acid] | ≥ 10 | 31.9 | 20.3 | > 100 | – | – | –
NCC(=O)NS(=O)(=O)c1ccc(Nc2nc(N)n(C(=O)c3c(F)cccc3F)n2)cc1 [Compound 2, N-(2-amino-acetyl)-4-[5-amino-1-(2,6-difluoro-benzoyl)-1H-[1,2,4]triazol-3-ylamino]-benzenesulfonamide] | ≥ 10 | 14.9 | 9.45 | 37 | – | – | –
COCCOCC(=O)NS(=O)(=O)c1ccc(Nc2nc(N)n(C(=O)c3c(F)cccc3F)n2)cc1 [Compound 3, 4-[5-amino-1-(2,6-difluoro-benzoyl)-1H-[1,2,4]triazol-3-ylamino]-N-[2-(2-methoxy-ethoxy)-acetyl]-benzenesulfonamide] | ≥ 10 | > 10 | > 100 | > 10 | – | – | –
Nc1nc(Nc2ccc(S(=O)(=O)NC(=O)Cn3cnnn3)cc2)nn1C(=O)c1c(F)cccc1F [Compound 4, 4-[5-amino-1-(2,6-difluoro-benzoyl)-1H-[1,2,4]triazol-3-ylamino]-N-(2-tetrazol-1-yl-acetyl)-benzenesulfonamide] | ≥ 10 | > 100 | > 100 | > 100 | – | – | –
CN1CCN(CCC(=O)NS(=O)(=O)c2ccc(Nc3nc(N)n(C(=O)c4c(F)cccc4F)n3)cc2)CC1 [Compound 5, 4-[5-amino-1-(2,6-difluoro-benzoyl)-1H-[1,2,4]triazol-3-ylamino]-N-[3-(4-methyl-piperazin-1-yl)-propionyl]-benzenesulfonamide] | ≥ 10 | > 100 | > 100 | > 10 | – | – | –
CN(C)CC(=O)NS(=O)(=O)c1ccc(Nc2nc(N)n(C(=O)c3c(F)cccc3F)n2)cc1 [Compound 6, 4-[5-amino-1-(2,6-difluoro-benzoyl)-1H-[1,2,4]triazol-3-ylamino]-N-(2-dimethylamino-acetyl)-benzenesulfonamide] | ≥ 10 | > 10 | > 100 | > 10 | – | – | –
Nc1nc(Nc2ccc(S(=O)(=O)NC(=O)CCN3CCOCC3)cc2)nn1C(=O)c1c(F)cccc1F [Compound 7, 4-[5-amino-1-(2,6-difluoro-benzoyl)-1H-[1,2,4]triazol-3-ylamino]-N-(3-morpholin-4-yl-propionyl)-benzenesulfonamide] | > 100 | 20.9 | > 100 | 50.8 | – | – | –
CCOC(=O)CCC(=O)NS(=O)(=O)c1ccc(Nc2nc(N)n(C(=O)c3c(F)cccc3F)n2)cc1 [Compound 8, 4-{4-[5-amino-1-(2,6-difluoro-benzoyl)-1H-[1,2,4]triazol-3-ylamino]-benzenesulfonylamino}-4-oxo-butyric acid ethyl ester] | 1.23 | 60.2 | > 10 | 40.1 | – | – | –
COCCOCCOCC(=O)NS(=O)(=O)c1ccc(Nc2nc(N)n(C(=O)c3c(F)cccc3F)n2)cc1 [Compound 9, 4-[5-amino-1-(2,6-difluoro-benzoyl)-1H-[1,2,4]triazol-3-ylamino]-N-{2-[2-(2-methoxy-ethoxy)-ethoxy]-acetyl}-benzenesulfonamide] | > 100 | > 10 | > 10 | > 100 | – | – | –

Further lines, with some results ahead:

IC50 [2] [µM] | IC50 ([1]; Homo sapiens) [µM] | IC50 ([3]; Homo sapiens, A-375) [µM] | IC50 ([4]; Homo sapiens, HCT-116) [µM] | Compound | IC50 [1] [µM] | IC50 [3] [µM] | IC50 [4] [µM]
> 100 | > 100 | > 100 | > 100 | COCCOCCOCC(=O)Nc1nc(Nc2ccc(S(N)(=O)=O)cc2)nn1C(=O)c1c(F)cccc1F [Compound 10, N-[2-(2,6-difluoro-benzoyl)-5-(4-sulfamoyl-phenylamino)-2H-[1,2,4]triazol-3-yl]-2-[2-(2-methoxy-ethoxy)-ethoxy]-acetamide] | – | – | –
> 100 | > 100 | > 100 | > 100 | Nc1nc(Nc2ccc(S(=O)(=O)NC(=O)CCCC(=O)O)cc2)nn1C(=O)c1c(F)cccc1F [Compound 11, 5-{4-[5-amino-1-(2,6-difluoro-benzoyl)-1H-[1,2,4]triazol-3-ylamino]-benzenesulfonylamino}-5-oxo-pentanoic acid] | – | – | –
> 100 | 30.8 | > 10 | > 10 | Nc1nc(Nc2ccc(S(=O)(=O)NC(=O)COCCOCCOCC(=O)O)cc2)nn1C(=O)c1c(F)cccc1F [Compound 12, {2-[2-(2-{4-[5-amino-1-(2,6-difluoro-benzoyl)-1H-[1,2,4]triazol-3-ylamino]-benzenesulfonylamino}-2-oxo-ethoxy)-ethoxy]-ethoxy}-acetic acid.2TFA salt] | – | – | –
≥ 10 | 4.02 | > 10 | 71.2 | Nc1nc(Nc2ccc(S(=O)(=O)NC(=O)[C@@H](N)CO)cc2)nn1C(=O)c1c(F)cccc1F [Compound 13, 4-[5-amino-1-(2,6-difluoro-benzoyl)-1H-[1,2,4]triazol-3-ylamino]-N—((S)-2-amino-3-hydroxy-propionyl)-benzenesulfonamide] | – | – | –
≥ 10 | 1.96 | 71.1 | 38.5 | C[C@@H](N)C(=O)NS(=O)(=O)c1ccc(Nc2nc(N)n(C(=O)c3c(F)cccc3F)n2)cc1 [Compound 14, 4-[5-amino-1-(2,6-difluoro-benzoyl)-1H-[1,2,4]triazol-3-ylamino]-N—((R)-2-amino-propionyl)-benzenesulfonamide] | – | – | –
≥ 10 | 1.04 | 12.1 | 20.8 | C[C@H](N)C(=O)N[C@@H](C)C(=O)NS(=O)(=O)c1ccc(Nc2nc(N)n(C(=O)c3c(F)cccc3F)n2)cc1.O=C(O)C(F)(F)F.O=C(O)C(F)(F)F.O=C(O)C(F)(F)F [Compound 15, (S)-2-amino-N—((S)-2-{4-[5-amino-1-(2,6-difluoro-benzoyl)-1H-[1,2,4]triazol-3-ylamino]-benzenesulfonylamino}-1-methyl-2-oxo-ethyl)-propionamide 3 TFA salt] | – | – | –
50 | 10.2 | 26.8 | 3.94 | Nc1nc(Nc2ccc(S(=O)(=O)NC(=O)[C@@H]3CCCN3)cc2)nn1C(=O)c1c(F)cccc1F [Compound 16, 4-[5-amino-1-(2,6-difluoro-benzoyl)-1H-[1,2,4]triazol-3-ylamino]-N—((S)-pyrrolidine-2-carbonyl)-benzenesulfonamide] | – | – | –
20 | 58.3 | > 100 | 28.4 | Nc1nc(Nc2ccc(S(=O)(=O)NC(=O)[C@@H](N)CC(=O)O)cc2)nn1C(=O)c1c(F)cccc1F [Compound 17, (S)-3-amino-4-{4-[5-amino-1-(2,6-difluoro-benzoyl)-1H-[1,2,4]triazol-3-ylamino]-benzenesulfonylamino}-4-oxo-butyric acid] | – | – | –
5 | 81.2 | > 100 | > 100 | CCCCC(=O)NS(=O)(=O)c1ccc(Nc2nc(N)n(C(=O)c3c(F)cccc3F)n2)cc1 [Compound 18, 4-[5-amino-1-(2,6-difluoro-benzoyl)-1H-[1,2,4]triazol-3-ylamino]-N-pentanoyl-benzenesulfonamide] | – | – | –
5 | 6.89 | 24.1 | 11.6 | CCCC(=O)NS(=O)(=O)c1ccc(Nc2nc(N)n(C(=O)c3c(F)cccc3F)n2)cc1 [Compound 19, 4-[5-amino-1-(2,6-difluoro-benzoyl)-1H-[1,2,4]triazol-3-ylamino]-N-butyryl-benzenesulfonamide] | – | – | –
